Values quoted from earlier work in patent US10550245B2, “Alternative methods to control crosslinking in high impact polystyrene” (Fina Technology, Inc., priority 2015, dated 2020).
Like-named read-outs stand apart in the source and are kept apart here. Values belong to the molecule of their own block, whether it stands above or below them.

- Solubility (wt. %), Acetone (Table 2): 20 wt. %
- Solubility (wt. %), Benzene (Table 2): 43 wt. %
- Solubility (wt. %), Chloroform (Table 2): 39 wt. %
- Solubility (wt. %), Ethyl Acetate (Table 2): 46 wt. %
- Solubility (wt. %), Hexane (Table 2): 6 wt. %
- Solubility (wt. %), Methanol (Table 2): 1.4 wt. %
- Solubility (wt. %), Water (Table 2): <0.01 wt. %
SMILES: CCCCCCCCSc1nc(Nc2cc(C(C)(C)C)c(O)c(C(C)(C)C)c2)nc(SCCCCCCCC)n1 [BNX ® 565, 2,6-di-tert-butyl-4-(4,6-bis(octylthio)-1,3,5-triazin-2-ylamino)phenol]

SMILES: CC(C)(C)c1cc(CCC(=O)OCC(COC(=O)CCc2cc(C(C)(C)C)c(O)c(C(C)(C)C)c2)(COC(=O)CCc2cc(C(C)(C)C)c(O)c(C(C)(C)C)c2)COC(=O)CCc2cc(C(C)(C)C)c(O)c(C(C)(C)C)c2)cc(C(C)(C)C)c1O [BNX ® 1010, tetrakis[methylene-3(3′,5′-di-tert-butyl-4-hydroxyphenyl)propionate]methane]
- Solubility (10 g/100 ml Toluene) (10 g/100 ml Toluene, 25° C.): Clear (25° C.)
- Solubility, Acetone (at 25° C., Table 5B): 47%
- Solubility, Benzene (at 25° C., Table 5B): 56%
- Solubility, Chloroform (at 25° C., Table 5B): 71%
- Solubility, Ethanol (at 25° C., Table 5B): 1.5%
- Solubility, Ethyl Acetate (at 25° C., Table 5B): 46%
- Solubility, Hexane (at 25° C., Table 5B): 0.3%
- Solubility, Methanol (at 25° C., Table 5B): 1%
- Solubility, Methylene Chloride (at 25° C., Table 5B): 63%
- Solubility, Toluene (at 25° C., Table 5B): 60%
- Solubility, Water (at 25° C., Table 5B): <0.01% ^

- Solubility, 80% Caprolactam + 20% water (at 25° C.): 3 g/100 ml solvent
- Solubility, 95% Caprolactam + 5% water (at 25° C.): >20 g/100 ml solvent
- Solubility, Acetone (at 25° C.): 2 g/100 ml solvent
- Solubility, Benzene (at 25° C.): 0.01 g/100 ml solvent
- Solubility, Caprolactam (at 25° C.): >20 g/100 ml solvent
- Solubility, Chloroform (at 25° C.): 6 g/100 ml solvent
- Solubility, Ethyl Acetate (at 25° C.): 1 g/100 ml solvent
- Solubility, Hexane (at 25° C.): 0.01 g/100 ml solvent
- Solubility, Methanol (at 25° C.): 6 g/100 ml solvent
- Solubility, Water (at 25° C.): 0.01 g/100 ml solvent
SMILES: CC(C)(C)c1cc(CCC(=O)NCCCCCCNC(=O)CCc2cc(C(C)(C)C)c(O)c(C(C)(C)C)c2)cc(C(C)(C)C)c1O [BNX ® 1098]
